Reference: PubChem BioAssay (NCI)
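Compound exposure: 48 hours, 5 concentrations, 96-well plates. Definition used: TGI = concentration required for complete inhibition of growth.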 Where a SMILES comes first, the peptide text is derived from it.

Columns and labels:
Assay in all cases: NCI anticancer screen, dose series, 48 h
DLD-1 colon = test system: DLD-1 colon
DMS 114 small cell lung = test system: DMS 114 small cell lung
KM12 colon = test system: KM12 colon
OVCAR-4 ovarian = test system: OVCAR-4 ovarian
SF-295 CNS = test system: SF-295 CNS
SK-MEL-5 melanoma = test system: SK-MEL-5 melanoma
SNB-19 CNS = test system: SNB-19 CNS
TK-10 renal = test system: TK-10 renal
UACC-62 melanoma = test system: UACC-62 melanoma
MDA-N = test system: MDA-N
MOLT-4 leukemia = test system: MOLT-4 leukemia

| Structure (SMILES) | TGI (DLD-1 colon) | TGI (DMS 114 small cell lung) | TGI (KM12 colon) | TGI (OVCAR-4 ovarian) | TGI (SF-295 CNS) | TGI (SK-MEL-5 melanoma) | TGI (SNB-19 CNS) | TGI (TK-10 renal) | TGI (UACC-62 melanoma) | TGI (MDA-N) | TGI (MOLT-4 leukemia) |
| --- | --- | --- | --- | --- | --- | --- | --- | --- | --- | --- | --- |
| COc1ccccc1NC(=O)CSC(N)=O | > 100 µM | > 100 µM | > 100 µM | > 100 µM | > 100 µM | > 100 µM | > 100 µM | > 100 µM | 68.3 µM | – | – |
| CC(=O)Nc1nc(C)c(S(=O)(=O)NC(=O)N2c3ccccc3CCc3ccccc32)s1 | – | – | > 100 µM | > 100 µM | > 100 µM | > 100 µM | 71.9 µM | > 100 µM | > 100 µM | > 100 µM | > 100 µM |
| O=C1CCc2cc3c(cc21)C(C(=O)O)CC3 (configuration not stated) | – | – | > 100 µM | > 100 µM | > 100 µM | > 100 µM | > 100 µM | > 100 µM | > 100 µM | > 100 µM | > 100 µM |
| CCC(C)C(NC(=O)C1CCCN1)C(=O)NC(C(=O)NCC(=O)NC(CC(N)=O)C(=O)NC(CC(C)C)C(=O)NC(CC(C)C)C(=O)NC(CCCCN)C(N)=O)C(C)C (configuration not stated) (H-PIVGNLLK-NH2; configuration not given here) | – | – | > 75 µM | > 75 µM | > 75 µM | > 75 µM | > 75 µM | > 75 µM | > 75 µM | > 75 µM | > 75 µM |
| Cc1ccc(C(=O)NN=C(/N=N/c2cccc(C)c2)c2ccc(N(C)C)cc2)cc1 | – | – | > 100 µM | > 100 µM | > 100 µM | > 100 µM | > 100 µM | > 100 µM | > 100 µM | > 100 µM | > 100 µM |
| OCC1c2ccccc2-n2nc(-c3ccccc3)c(O)c21 (configuration not stated) | – | – | 46.1 µM | > 100 µM | > 100 µM | > 100 µM | > 100 µM | 34.1 µM | 67.7 µM | > 100 µM | > 100 µM |
| Cc1sc2nc3n(sc4nc5sc(C)c(C)c5c(=O)n43)c(=O)c2c1C | – | – | > 100 µM | > 100 µM | > 100 µM | > 100 µM | > 100 µM | > 100 µM | 87.6 µM | > 100 µM | 52 µM |
| NC(=O)CC[C@H]1C(=O)N=C(N)N1C(=O)OCc1ccccc1 | – | – | > 100 µM | > 100 µM | > 100 µM | > 100 µM | > 100 µM | > 100 µM | > 100 µM | > 100 µM | > 100 µM |
| O=C(c1ccccc1)c1ccc2nc(-c3c(Cl)c(Cl)c(Cl)c(Cl)c3C(=O)Nc3ccco3)[nH]c2c1 | – | – | > 100 µM | > 100 µM | > 100 µM | > 100 µM | > 100 µM | > 100 µM | > 100 µM | 41 µM | > 100 µM |
| CCOC(=O)c1c(SCCN2CCCCC2)n(-c2ccccc2)c(=S)n(-c2ccccc2)c1=O | – | – | 35 µM | 33 µM | > 100 µM | 29.7 µM | > 100 µM | 31.9 µM | 68.9 µM | 36.9 µM | 6.7 µM |
| CCn1c(O)c(C(=O)NC(C)c2ccc([N+](=O)[O-])cc2)c(=O)n(CC)c1=S (configuration not stated) | – | – | 5.58 µM | 12.1 µM | 3.7 µM | 11.3 µM | 10.8 µM | 17 µM | 5.8 µM | 13.6 µM | 5.52 µM |
| CCn1c(SCc2nnc(Nc3ccccc3)s2)nc2ccccc2c1=O | – | – | > 48.9 µM | 5 µM | 6.87 µM | 32.5 µM | 13.4 µM | 12.3 µM | 11.9 µM | > 52.1 µM | > 100 µM |
| CC(=O)NCC1OC2COC(c3ccccc3)OC2C2N=C(c3ccccc3)OC12 (configuration not stated) | – | – | > 100 µM | > 100 µM | > 100 µM | > 100 µM | > 100 µM | > 100 µM | > 100 µM | > 100 µM | > 100 µM |
| CN(c1ccc(Cl)cc1)S(=O)(=O)c1ccccc1 | – | – | > 100 µM | > 100 µM | > 100 µM | 47 µM | > 100 µM | > 100 µM | > 100 µM | > 100 µM | > 100 µM |
| Cn1c(O)c(/C=N/c2ncccn2)c(=O)[nH]c1=O | – | – | > 100 µM | > 100 µM | > 100 µM | > 100 µM | > 100 µM | > 100 µM | > 100 µM | > 100 µM | > 100 µM |
| O=C1Sc2cc3ccccc3cc2C(=O)Sc2cc3ccccc3cc21 | – | – | > 100 µM | 69.5 µM | > 100 µM | > 100 µM | > 100 µM | > 100 µM | 67.2 µM | > 100 µM | 76.8 µM |
| Nc1cc2ncnc(Nc3cccc(Br)c3)c2cn1 | – | – | 63.9 µM | > 100 µM | 71.8 µM | > 100 µM | > 100 µM | 8.18 µM | > 100 µM | > 100 µM | > 100 µM |

| Structure (SMILES) | TGI (DLD-1 colon) | TGI (DMS 114 small cell lung) | TGI (KM12 colon) | TGI (OVCAR-4 ovarian) | TGI (SF-295 CNS) | TGI (SK-MEL-5 melanoma) | TGI (SNB-19 CNS) | TGI (TK-10 renal) | TGI (UACC-62 melanoma) | TGI (MDA-N) | TGI (MOLT-4 leukemia) |
| --- | --- | --- | --- | --- | --- | --- | --- | --- | --- | --- | --- |
| O=C(O)c1cc(Nc2c(O)c3c(c(O)c2Cl)C(=O)C=CC3=O)ccc1O | – | – | > 10 µM | > 10 µM | > 10 µM | > 10 µM | > 10 µM | > 10 µM | > 10 µM | > 10 µM | > 10 µM |
| CC(C)Oc1cc2c(cc1O)CC[C@@H]1[C@@H]2CC[C@]2(C)[C@@H](O)CC[C@@H]12 | – | – | 16.5 µM | 61.1 µM | 11.8 µM | 12.8 µM | 31.8 µM | 54.6 µM | 13.2 µM | 3.6 µM | 30.2 µM |
| Cc1cc2nc3c(N)nn(CCN(C)C)c3nc2cc1C | – | – | > 100 µM | > 100 µM | > 100 µM | > 100 µM | > 100 µM | > 100 µM | > 100 µM | > 100 µM | > 100 µM |
| C/C=C\C(CC(=O)NCCc1c[nH]c2ccccc12)CC(=O)OC (configuration not stated) | – | – | > 100 µM | > 100 µM | > 100 µM | > 100 µM | > 100 µM | > 100 µM | > 100 µM | > 100 µM | > 100 µM |
| COc1ccc(Nc2nc(NNC(=O)Cc3ccccc3)nc(NNC(=O)c3ccncc3)n2)cc1 | – | – | > 10 µM | > 10 µM | > 10 µM | > 10 µM | > 10 µM | > 10 µM | 8.65 µM | > 10 µM | > 10 µM |
| CCOC(=O)COC1=Nc2cc(OC)c(OC)c3nc(Cl)cc(c23)C1=O | – | – | 28.6 µM | 3.14 µM | 24 µM | 3.53 µM | 22.1 µM | 3.45 µM | 3.17 µM | 2.63 µM | 5.91 µM |
| CCCOC1OC(CS(=O)(=O)O)C(OC(C)=O)C(OC(C)=O)C1OC(C)=O (configuration not stated) | – | – | > 100 µM | > 100 µM | > 100 µM | > 100 µM | > 100 µM | > 100 µM | > 100 µM | > 100 µM | > 100 µM |
| CCOC(=O)NC(OCc1ccccc1)(C(=O)OC)C(F)(F)F (configuration not stated) | – | – | > 100 µM | > 100 µM | > 100 µM | > 100 µM | > 100 µM | > 100 µM | > 100 µM | > 100 µM | > 100 µM |
| COc1ccc(C(=O)/C=C/c2ccc(OCCCOc3ccc(/C=C/C(=O)c4ccc(OC)c(OC)c4)cc3)cc2)cc1OC | – | – | > 100 µM | > 100 µM | > 100 µM | > 100 µM | > 100 µM | > 100 µM | > 100 µM | > 100 µM | > 100 µM |
| CN1CCCC(OC(=O)c2cc3cc(CCl)ccc3oc2=O)C1 (configuration not stated) | – | – | 68.3 µM | 48.6 µM | 77.9 µM | 33.9 µM | > 100 µM | 48.8 µM | 31.6 µM | 46 µM | 98 µM |
| O=C1NC(=S)N/C1=C\c1ccc(Sc2ccccc2C(=O)O)s1 | – | – | > 100 µM | > 100 µM | > 100 µM | > 100 µM | > 100 µM | > 100 µM | > 100 µM | > 100 µM | > 100 µM |
| CC1Cc2c(cc(N)nc2Br)NC1=O (configuration not stated) | – | – | > 100 µM | > 100 µM | > 100 µM | > 100 µM | > 100 µM | > 100 µM | > 100 µM | > 100 µM | > 100 µM |
| COC(CC1(CCNc2ccccc2)C(=O)N(COCC[Si](C)(C)C)c2ccccc21)OC (configuration not stated) | – | – | 23.8 µM | 28.6 µM | 32 µM | > 100 µM | 33.1 µM | 28.9 µM | 29.8 µM | > 68.2 µM | > 100 µM |
| COC(C[C@H]1CCCC[C@]1(O)/C(=C\CO[Si](C(C)C)(C(C)C)C(C)C)Sc1ccccc1)OC | – | – | > 100 µM | > 100 µM | > 100 µM | > 100 µM | > 100 µM | > 100 µM | > 100 µM | > 100 µM | 38.8 µM |
| CCC1(O)CC(O)c2c(O)c3c(c(O)c2C1C(=O)OC)C(=O)c1cccc(O)c1C3=O (configuration not stated) | – | – | 17.4 µM | 13.9 µM | 10.7 µM | 6.39 µM | 20.9 µM | 24.3 µM | 12.4 µM | 47.1 µM | 2.19 µM |
| COc1ccc(OC)c(-c2cn3c(n2)sc2ccccc23)c1 | – | – | > 100 µM | > 100 µM | > 100 µM | > 100 µM | > 100 µM | > 100 µM | > 100 µM | > 100 µM | > 100 µM |
